Legend:
[1] = set-up: method as in Koyani et al., 2017; Lee et al., 2016; He et al., 2009; settings: in vitro studies; ref Koyani et al., 2017; Lee et al., 2016; He et al., 2009; cited from earlier work
PKC [2] = test: PKC activity assay in HL-1 cells; assay type: cell-based, murine
Description: (§1) HL-1 cells (a murine cardiomyocyte cell line, Sigma-Aldrich, Vienna, Austria) were cultured in fibronectin (0.5% [w/v])/gelatin (0.02% [w/v]) coated flasks and maintained in Claycomb medium (Sigma-Aldrich) ([Claycomb et al., 1998]) containing 10% (v/v) fetal bovine serum (FBS, Thermo Fisher Scientific, IL, United States), 0.1 mM norepinephrine, 2 mM L-glutamine, 100 IU/ml penicillin and 100 μg/ml streptomycin (Sigma-Aldrich), and kept at 37°C under 5% CO2, as previously described ([Scheruebel et al., 2014]).
(§2) HL-1 cells were transfected with siRNAs (four different constructs) specific for DPP8 or DPP9 (40 nM each, Qiagen), or scrambled negative control siRNA (40 nM si-scr; Allstars negative control siRNA, Qiagen) ([Koyani et al., 2014]). The siRNA transfection was performed using Lipofectamine 3000 (Invitrogen) according to the supplier’s manual. Briefly, HL-1 (50% confluent) were transfected with 1 ml medium (composition of medium is given above, without FBS and antibiotics) containing 2 μl of Lipofectamine 3000 and the respective siRNA for 6 h at 37°C. Transfection medium was replaced with medium (containing FBS and antibiotics) and cells were grown for another 24 h. The mRNA expression levels of silenced genes were measured using qPCR (see above).
Estimation of active PKC was performed using a PKC kinase activity kit (ADI-EKS-420A, Enzo Life Sciences, NY, United States) according to the manufacturer’s protocol.

HL-1 cardiomyocytes = test: fluorescence microscopy of fluorescamine adduct uptake; assay type: cell-based, murine; settings: HL-1 cells, drug-fluorescamine 2–2 μM
Description: as §1, with “2014]). […] Fluorescence images were captured at excitation/emission wavelengths of 390/470 nm.” for “2014]).”

PLB = test: Western blot pPLB (T17); assay type: cell-based, murine; settings: HL-1 cells
Description: as §1
(§3) HL-1 cells or mouse left ventricle (LV) were lysed in ice-cold lysis buffer (containing in mM: HEPES 50, NaCl 150, EDTA 1, Na4P2O7 10, Na3VO4 2, NaF 10, 1% [v/v] Triton X-100, 10% [v/v] glycerol, pH 7.4, Sigma-Aldrich) containing a Protease Phosphatase Inhibitor Cocktail (Thermo Fisher Scientific). Pellets were separated by centrifugation at 13,000 rpm (4°C, 10 min). Protein estimation of whole cell was performed using BCA protein assay kit (Thermo Fisher Scientific). Whole cell protein lysates (50 μg) were added to 10 μl of NuPAGE LDS sample buffer (Invitrogen) containing 2 μl of NuPAGE sample reducing agent (Invitrogen). After heating for 10 min at 70°C, proteins were separated by electrophoresis on NuPAGE 4–12% Bis-Tris gel (Invitrogen) and transferred to nitrocellulose membranes (Invitrogen, 0.2 μm) ([Jain et al., 2015]). Membranes were blocked with 5% (w/v) non-fat milk in Tris-buffered saline containing Tween 20 (TBST, 25°C, 2 h) and incubated with primary antibodies overnight at 4°C. The following primary antibodies (diluted in 5% [w/v] BSA-TBST) were used: phospho-CaMKII (pCaMKII, T286, 1:1000, Abcam, ab32678), phospho-PLB (pPLB, T17, 1:5000, Badrilla, A010-13), DPP8 (1:500, Santa Cruz, sc-376399), DPP9 (1:500, Santa Cruz, sc-271634), CaMKII (1:500, Santa Cruz, sc-9035), and PLB (1:2000, Thermo Fisher Scientific, MA3-922). After washing, the membranes were incubated with HRP-conjugated goat anti-mouse IgG (1:10,000, Cell Signaling, 7076) or goat anti-rabbit IgG (1:10,000, Cell Signaling, 7074) (25°C, 2 h). Immunoreactive bands were visualized using Immobilon Western Chemiluminescent HRP substrate (Merck Millipore, Vienna, Austria) and developed by Bio-Rad ChemiDoc MP Imaging System. For normalization, membranes were stripped with stripping buffer (58.4 g/l NaCl, 7.5 g/l glycine, pH 2.15), blocked and incubated with a primary antibody against glyceraldehyde 3-phosphate dehydrogenase (GAPDH, 1:1000, Santa Cruz, sc-25778). Densitometric evaluation of immunoreactive bands was performed using Image Lab 4.1 software.
as §2

[3] = test system: mouse ventricular cardiomyocytes; test: Ca2+ transient (CaT) measurement; assay type: cell-based; settings: 2 μM, 2 h, 1 Hz
Description: (§4) Cardiomyocytes were isolated from adult mice (14–18 weeks old, either sex). The experimental procedure and number of used animals were approved by the ethics committee of the Federal Ministry of Science, Research and Economy of the Republic of Austria (BMWF-66.010/0038-V/3b/2018). Mice were euthanized (40 mg/kg ketamine and 10 mg/kg xylazine), hearts were quickly removed and cardiomyocytes were isolated as previously described ([Ackers-Johnson et al., 2016]) using collagenase 2 and 4 (Worthington Biochemical Corporation, NJ, United States). After isolation cardiomyocytes were kept in standard external solution (containing in mM: NaCl 137, KCl 5.4, CaCl2 1.8, MgCl2 1.1, NaHCO3 2.2, NaH2PO4 0.4, HEPES/Na^+ 10, D(+)-glucose 5.6, pH 7.4 adjusted with NaOH). All experiments were performed on the day of isolation.
CaT was assessed by field stimulation (platinum electrode distance: 1 cm; pulse duration: 5 ms; suprathreshold pulse amplitude: 4 V/cm) at a frequency of 1 Hz using a video-based sarcomere length detection system (IonOptix Corporation, MA, United States) at 37°C. Fluorescence intensities were measured at 340 and 380 nm of excitation and at 510 nm of emission wavelengths using a dual excitation light source. The F340/F380 ratio was used as an index of cytosolic Ca^2+ concentration and to calculate CaT relaxation tau (τCaT). Data were analyzed using Clampfit 10.2 (Molecular Devices) and LabChart 7.0 (peak analysis module, ADInstruments Ltd., Oxford, United Kingdom).

CaMKII = test: Western blot pCaMKII (T286); assay type: cell-based, murine; settings: HL-1 cells
Description: as §1, §3, §2

[4] = test system: mouse ventricular cardiomyocytes; test: patch clamp action potential recording; assay type: cell-based; settings: 2 μM, 5 min superfusion, 1 Hz
Description: as §4
Action potentials (APs) were recorded in the whole cell configuration of the patch clamp technique using Axopatch 200B amplifier (Molecular Devices, CA, United States) and the A/D – D/A converters Digidata 1322A (Molecular Devices). […] Ten consecutive APs were analyzed using LabChart 7.0 (Cardiac action potential analysis module, ADInstruments Ltd., Oxford, United Kingdom).

[5] = set-up: method as in Green et al., 2015; settings: TECOS trial, T2DM patients; ref Green et al., 2015; cited from earlier work
PKC [6] = test system: PKC; set-up: method as in Hasegawa et al., 2016; settings: human endothelial cells; ref Hasegawa et al., 2016; cited from earlier work
[7] = set-up: method as in Onglyza, 2016; settings: 5 mg single dose; ref Onglyza, 2016; cited from earlier work
PKC [8] = test system: PKC; set-up: method as in Dai et al., 2014; settings: THP-1 macrophages; ref Dai et al., 2014; cited from earlier work
[9] = plasma Cmax after single dose; assay type: in vivo; settings: human, 5 mg single dose, equivalent of 24 ng/ml (Onglyza, 2016), read-out: plasma Cmax, molar equivalent
[10] = set-up: method as in Udenfriend et al., 1972; settings: unbound, aqueous solution; ref Udenfriend et al., 1972; cited from earlier work
CaMKII and PLB = test: Western blot total CaMKII and PLB expression; assay type: cell-based, murine; settings: HL-1 cells, 2 μM, time course
Description: as §1
HL-1 cells or mouse left ventricle (LV) were lysed in ice-cold lysis buffer (containing in mM: HEPES 50, NaCl 150, EDTA 1, Na4P2O7 10, Na3VO4 2, NaF 10, 1% [v/v] Triton X-100, 10% [v/v] glycerol, pH 7.4, Sigma-Aldrich) containing a Protease Phosphatase Inhibitor Cocktail (Thermo Fisher Scientific). Pellets were separated by centrifugation at 13,000 rpm (4°C, 10 min). Protein estimation of whole cell was performed using BCA protein assay kit (Thermo Fisher Scientific). Whole cell protein lysates (50 μg) were added to 10 μl of NuPAGE LDS sample buffer (Invitrogen) containing 2 μl of NuPAGE sample reducing agent (Invitrogen). After heating for 10 min at 70°C, proteins were separated by electrophoresis on NuPAGE 4–12% Bis-Tris gel (Invitrogen) and transferred to nitrocellulose membranes (Invitrogen, 0.2 μm) ([Jain et al., 2015]). […]

DPP8 = test system: DPP8; set-up: method as in Lankas et al., 2005; settings: ref Lankas et al., 2005; cited from earlier work
DPP9 = test system: DPP9; set-up: method as in Lankas et al., 2005; settings: ref Lankas et al., 2005; cited from earlier work

For `N#C[C@@H]1CCCN1C(=O)CNC12CC3CC(CC(O)(C3)C1)C2` [vildagliptin], the membrane permeability [1] is given as “significant membrane permeability”.
For `N[C@@H](CC(=O)N1CCn2c(nnc2C(F)(F)F)C1)Cc1cc(F)c(F)cc1F` [sitagliptin], the “effect on intracellular PKC activity” value (PKC [2]; time course (2 μM) and concentration series (10 min)) was “no effect”, the “cellular uptake and localization (fluorescence)” value (HL-1 cardiomyocytes) was “internalized by cardiomyocytes and localizes in the cytosol” and the “effect on PLB phosphorylation levels” value (PLB; time course (2 μM) and concentration series (30 min)) was “neither time- (Figure 2F) nor concentration-dependent experiments (Figure 2H) showed an effect”. For the same compound, the membrane permeability [1] was “significant membrane permeability”, the “CaT relaxation (reciprocal of τCaT)” value [3] was “ineffective” and the “effect on pCaMKII expression, time course” value (CaMKII; 2 μM) was “failed to inhibit”. The “effect on CaMKII phosphorylation, concentration-dependent” value (CaMKII; up to 10 μM, 5 min) was “no effect”, the “action potential duration (APD, 90% repolarization)” value [4] was “not” and the “effect on the hospitalization of HF” value [5] was “did not show any effect”. The “effect on PKC activity” value (PKC [6]) was “ineffective”.
In the case of `N#C[C@@H]1C[C@@H]2C[C@@H]2N1C(=O)[C@@H](N)C12CC3CC(CC(O)(C3)C1)C2` [saxagliptin], the “plasma Cmax” value [7] is given as 24 ng/mL, the “reduced PKC activity, time from which observed” value (PKC [2]; 2 μM) is given as at least 2.5 min and the “efficacy on PKC activity in DPP8/DPP9 silenced cardiomyocytes” value (PKC [2]; 2 μM, 10 min) is given as “significantly abolished in DPP9 (but not DPP8) silenced cardiomyocytes”. For the same compound, the “reduced PKC activity, concentration from which observed” value (PKC [2]; 10 min) was at least 1 µM, the “oxidized low-density lipoprotein-induced pPKC levels” value (PKC [8]) was “inhibited” and the “reduced pPLB (T17), time from which observed” value (PLB; 2 μM) was at least 15 min. The “efficacy on pPLB expression in DPP8/DPP9 silenced cells” value (PLB; 2 μM, 30 min) was “abolished in DPP9 (but not DPP8) silenced cells”, the “reduced pPLB expression, concentration from which observed” value (PLB; 30 min) was at least 200 nM and the membrane permeability [1] was “significant membrane permeability”. The “CaT relaxation (reciprocal of τCaT)” value [3] was “impaired cardiac relaxation”, the “reduced CaMKII phosphorylation (T286), time from which observed” value (CaMKII; 2 μM) was at least 2.5 min and the “pCaMKII expression in DPP8 knocked down cardiomyocytes” value (CaMKII; 2 μM, 5 min, si-DPP8) was “effectively inhibited”. The “inhibition of CaMKII phosphorylation, concentration from which observed” value (CaMKII; 5 min) was at least 200 nM, the “action potential duration (APD, 90% repolarization)” value [4] was “prolongation of APD” and the Cmax [9] was about 76 nM.
In the case of `O=C1OC2(OC=C(c3ccccc3)C2=O)c2ccccc21` (stereo not shown) [fluorescamine], the half-life [10] is listed as 5 to 10 s.
For `CC[C@@H](C)[C@H](N)C(=O)N1Cc2ccccc2C1.Cl` [TC-E 5007], the “reduced PKC activity, time from which observed” value (PKC [2]; 2 μM) is given as at least 10 min, the “total CaMKII and PLB protein levels” value (CaMKII and PLB) is given as “did not affect” and the IC50 (DPP8) is given as […]. For the same compound, the “reduced pPLB (T17), time from which observed” value (PLB; 2 μM) was at least 60 min, the “CaT relaxation (reciprocal of τCaT)” value [3] was “impaired cardiac relaxation” and the “reduced CaMKII phosphorylation (T286), time from which observed” value (CaMKII; 2 μM) was at least 30 min. For the same compound, the IC50 (DPP9) was […].

— paper PMC6246635 (Frontiers in Physiology, 2018)
